# US8129380B2, “Phthalazinone derivatives” (AstraZeneca AB, priority 2008, dated 2012)
# Tested on: HeLa cells
# Test: Potentiation Factor (PF50): MMS growth inhibition, SRB assay
# Assay type: cell-based
# Details: MMS 0-10 μg/ml, ratio IC50 control / IC50 + inhibitor; for PF50 (30 nM): PARP inhibitor at 30 nM; for PF50 (200 nM): PARP inhibitor at 200 nM
# Experimental: The Potentiation Factor (PF50) for compounds is calculated as a ratio of the IC50 of control cell growth divided by the IC50 of cell growth+PARP inhibitor. Growth inhibition curves for both control and compound treated cells are in the presence of the alkylating agent methyl methanesulfonate (MMS). The test compounds were used at a fixed concentration of 0.2 micromolar. The concentrations of MMS were over a range from 0 to 10 μg/ml.
# 2,000 HeLa cells were seeded into each well of a flat-bottomed 96-well microtiter plate in a volume of 100 μl and incubated for 6 hours at 37° C. Cells were either replaced with media alone or with media containing PARP inhibitor at a final concentration of 30 nM or 200 nM. […] Cells treated with PARP inhibitor alone were used to assess the growth inhibition by the PARP inhibitor.
# Cells were left for a further 16 hours before replacing the media and allowing the cells to grow for a further 72 hours at 37° C. The media was then removed and the cells fixed with 100 μl of ice cold 10% (w/v) trichloroacetic acid. The plates were incubated at 4° C. for 20 minutes and then washed four times with water. Each well of cells was then stained with 100 μl of 0.4% (w/v) SRB in 1% acetic acid for 20 minutes before washing four times with 1% acetic acid. Plates were then dried for 2 hours at room temperature. The dye from the stained cells was solubilized by the addition of 100 μl of 10 mM Tris Base into each well.
structure (smiles),measurement,value
"O=C(c1cccc(Cc2n[nH]c(=O)c3ccccc23)c1)N1CCC(OC2CCCC2)CC1 [Compound 37, 4-(3-(4-(cyclopentyloxy)piperidine-1-carbonyl)benzyl)phthalazin-1(2H)-one]",PF50 (30 nM),1.7
same,PF50 (200 nM),10.6
"Cc1cccc(OC2CCN(C(=O)c3cc(Cc4n[nH]c(=O)c5ccccc45)ccc3F)CC2)n1 [Compound 39, 4-(4-fluoro-3-(4-(6-methylpyridin-2-yloxy)piperidine-1-carbonyl)benzyl)phthalazin-1(2H)-one]",PF50 (30 nM),1.4
"O=C(c1cc(Cc2n[nH]c(=O)c3ccccc23)ccn1)N1CCC(OC2CCCC2)CC1 [Compound 40, 4-((2-(4-(cyclopentyloxy)piperidine-1-carbonyl)pyridin-4-yl)methyl)phthalazin-1(2H)-one]",PF50 (30 nM),2.2
same,PF50 (200 nM),19.8
"COC1CCN(C(=O)c2cc(Cc3n[nH]c(=O)c4cccc(N)c34)ccc2F)CC1 [Compound 46, 5-amino-4-(4-fluoro-3-(4-methoxypiperidine-1-carbonyl)benzyl)phthalazin-1(2H)-one]",PF50 (30 nM),20.1
same,PF50 (200 nM),3.24
"CCOC1CCN(C(=O)c2cccc(Cc3n[nH]c(=O)c4ccccc34)c2)CC1 [Compound 47a, 4-(3-(4-ethoxypiperidine-1-carbonyl)benzyl)phthalazin-1(2H)-one]",PF50 (30 nM),1.8
"CCOC1CCN(C(=O)c2cc(Cc3n[nH]c(=O)c4c(C)[nH]c(C)c34)ccc2F)CC1 [Compound 54, 4-(3-(4-ethoxypiperidine-1-carbonyl)-4-fluorobenzyl)-5,7-dimethyl-2,6-dihydro-1H-pyrrolo[3,4-d]pyridazin-1-one]",PF50 (30 nM),1.3
"COC1CCN(C(=O)c2cc(Cc3n[nH]c(=O)c4c(C)[nH]c(C)c34)ccc2F)CC1 [Compound 58, 4-(4-fluoro-3-(4-methoxypiperidine-1-carbonyl)benzyl)-5,7-dimethyl-2,6-dihydro-1H-pyrrolo[3,4-d]pyridazin-1-one]",PF50 (30 nM),1.0
"COC1CCN(C(=O)c2cc(Cc3n[nH]c(=O)c4c(C)n(C)c(C)c34)ccc2F)CC1 [Compound 60, 4-(4-fluoro-3-(4-methoxypiperidine-1-carbonyl)benzyl)-5,6,7-trimethyl-2,6-dihydro-1H-pyrrolo[3,4-d]pyridazin-1-one]",PF50 (30 nM),1.0
"COC1CCN(C(=O)c2cc(Cc3n[nH]c(=O)c4c[nH]c(C)c34)ccc2F)CC1 [Compound 63, 4-(4-fluoro-3-(4-methoxypiperidine-1-carbonyl)benzyl)-5-methyl-2,6-dihydro-1H-pyrrolo[3,4-d]pyridazin-1-one]",PF50 (30 nM),1.0
"COC1CCN(C(=O)c2cc(Cc3n[nH]c(=O)c4cc(Cl)ccc34)ccc2F)CC1 [Compound 69, 7-chloro-4-(4-fluoro-3-(4-methoxypiperidine-1-carbonyl)benzyl)phthalazin-1(2H)-one]",PF50 (30 nM),1.7
"CC(C)(C)OC1CCN(C(=O)c2cc(Cc3n[nH]c(=O)c4ccccc34)ccc2F)CC1 [Compound 70, 4-(3-(4-tert-butoxypiperidine-1-carbonyl)-4-fluorobenzyl)phthalazin-1(2H)-one]",PF50 (30 nM),32.1
same,PF50 (200 nM),19.5
"CC(C)(C)OC1CCN(C(=O)c2cccc(Cc3n[nH]c(=O)c4ccccc34)c2)CC1 [Compound 71, 4-[[3-[4-[(2-methylpropan-2-yl)oxy]piperidine-1-carbonyl]phenyl]methyl]-2H-phthalazin-1-one]",PF50 (30 nM),4.0
same,PF50 (200 nM),8.9
"CC(C)(C)OC1CCN(C(=O)c2cc(Cc3n[nH]c(=O)c4ccccc34)ccn2)CC1 [Compound 73, 4-((2-(4-tert-butoxypiperidine-1-carbonyl)pyridin-4-yl)methyl)phthalazin-1(2H)-one]",PF50 (30 nM),6.2
same,PF50 (200 nM),27.8
"CC1(O)CCN(C(=O)c2cc(Cc3n[nH]c(=O)c4ccccc34)ccc2F)CC1 [Compound 74, 4-(4-fluoro-3-(4-hydroxy-4-methylpiperidine-1-carbonyl)benzyl)phthalazin-1(2H)-one]",PF50 (30 nM),1.5
"O=C(COC1CCN(C(=O)c2cc(Cc3n[nH]c(=O)c4ccccc34)ccc2F)CC1)N1CCOCC1 [Compound 77, 4-(4-fluoro-3-(4-(2-morpholino-2-oxoethoxy)piperidine-1-carbonyl)benzyl)phthalazin-1(2H)-one]",PF50 (30 nM),3.1
"O=C(c1cc(Cc2n[nH]c(=O)c3ccccc23)ccc1F)N1CCC(OCCN2CCOCC2)CC1 [Compound 80, 4-(4-fluoro-3-(4-(2-morpholinoethoxy)piperidine-1-carbonyl)benzyl)phthalazin-1(2H)-one]",PF50 (30 nM),1.5
"CN(C)C(=O)COC1CCN(C(=O)c2cc(Cc3n[nH]c(=O)c4ccccc34)ccc2F)CC1 [Compound 83, 2-(1-(2-fluoro-5-((4-oxo-3,4-dihydrophthalazin-1-yl)methyl)benzoyl)piperidin-4-yloxy)-N,N-dimethylacetamide]",PF50 (30 nM),1.7
"O=C(COC1CCN(C(=O)c2cc(Cc3n[nH]c(=O)c4ccccc34)ccc2F)CC1)N1CC(F)(F)C1 [Compound 89, 4-(3-(4-(2-(3,3-difluoroazetidin-1-yl)-2-oxoethoxy)piperidine-1-carbonyl)-4-fluorobenzyl)phthalazin-1(2H)-one]",PF50 (30 nM),1.9
"O=C(O)COC1CCN(C(=O)c2cc(Cc3n[nH]c(=O)c4ccccc34)ccc2F)CC1 [Compound 90, 2-(1-(2-fluoro-5-((4-oxo-3,4-dihydrophthalazin-1-yl)methyl)benzoyl)piperidin-4-yloxy)acetic acid]",PF50 (30 nM),1.1
"COC[C@H](C)OC1CCN(C(=O)c2cc(Cc3n[nH]c(=O)c4ccccc34)ccc2F)CC1 [Compound 93, (S)-4-(4-fluoro-3-(4-(1-methoxypropan-2-yloxy)piperidine-1-carbonyl)benzyl)phthalazin-1(2H)-one]",PF50 (30 nM),2.8
"COC1CCN(C(=O)c2cc(Cc3n[nH]c(=O)c4ccc(N)cc34)ccc2F)CC1 [Compound 99, 6-amino-4-(4-fluoro-3-(4-methoxypiperidine-1-carbonyl)benzyl)phthalazin-1(2H)-one]",PF50 (30 nM),1.0
"COC1CCN(C(=O)c2cc(Cc3n[nH]c(=O)c4cccc(Cl)c34)ccc2F)CC1 [Compound 104a, 5-chloro-4-(4-fluoro-3-(4-methoxypiperidine-1-carbonyl)benzyl)phthalazin-1(2H)-one]",PF50 (30 nM),1.3
"CCOC1CCN(C(=O)c2cc(Cc3n[nH]c(=O)c4cccc(Cl)c34)ccc2F)CC1 [Compound 104b, 5-chloro-4-(3-(4-ethoxypiperidine-1-carbonyl)-4-fluorobenzyl)phthalazin-1(2H)-one]",PF50 (30 nM),2.2
"O=C(COC1CCN(C(=O)c2cc(Cc3n[nH]c(=O)c4ccccc34)ccc2F)CC1)N1CCCC1 [Compound 107, 4-(4-fluoro-3-(4-(2-oxo-2-(pyrrolidin-1-yl)ethoxy)piperidine-1-carbonyl)benzyl)phthalazin-1(2H)-one]",PF50 (30 nM),1.7
"O=C(COC1CCN(C(=O)c2cc(Cc3n[nH]c(=O)c4ccccc34)ccc2F)CC1)N1CCCCC1 [Compound 113, 4-(4-fluoro-3-(4-(2-oxo-2-(piperidin-1-yl)ethoxy)piperidine-1-carbonyl)benzyl)phthalazin-1 (2H)-one]",PF50 (30 nM),5.8
same,PF50 (200 nM),23.1
"COC1CCN(C(=O)c2cccc(Cc3n[nH]c(=O)c4cccc(Cl)c34)c2)CC1 [Compound 119a, 5-chloro-4-(3-(4-methoxypiperidine-1-carbonyl)benzyl)phthalazin-1(2H)-one]",PF50 (30 nM),1.0
